Results published in patent US20110045086A1, “Steroid Nebuliser Formulation” (BREATH LTD, priority 2008, published 2011).

Columns and labels:
Assay type in all cases: physicochemical
[1] = dry Sympatec PSD analysis (particle size distribution); conditions: for Particle Size, cumulative distribution Q3 X10 / Particle Size, cumulative distribution Q3 X50 / Particle Size, cumulative distribution Q3 X90: dry Sympatec PSD, after isolation / pre-storage sample
Text: Particle size or particle diameter as used herein can be suitably determined by laser diffraction based methods, for example as described in ISO Standard 13320-1. Laser diffraction particle sizing apparatus such as the Malvern Mastersizer 2000™ can be used.

[2] = microscope imaging / SEM of particles; conditions: for largest particles or clusters observed (microscope imaging / SEM): after supercritical CO2 isolation; for particle size in suspension prior to isolation (microscope imaging): partially agglomerated particles, before supercritical CO2 isolation
[3] = storage at 20% relative humidity for 48 hours (DVS, DSC, PSD, SEM); conditions: for Particle Size, cumulative distribution Q3 X10 / Particle Size, cumulative distribution Q3 X50 / Particle Size, cumulative distribution Q3 X90: dry Sympatec PSD, post-storage sample; for DSC trace of the stored sample / variation of particle size after storage (PSD): post-storage; for weight change during storage (DVS mass plot): storage at 20% RH for 48 hours
Procedure: In order to evaluate the effect of humidity on prolonged storage processed BDP hydrate was subjected to 20% relative humidity (RH) for 48 hours.
The sample recovered after storage was analysed by DSC, TGA, PSD and SEM.
In order to evaluate the effect of humidity on prolonged storage anhydrous BDP was subjected to 20% relative humidity (RH) for 48 hours. The pre-storage sample was characterized by TGA, DSC, PSD and SEM analysis.
The sample recovered after storage was analyzed by DSC, PSD and SEM.

[4] = after supercritical CO2 isolation

Row | largest particles by dry Sympatec PSD analysis ([1]; after supercritical CO2 isolation, bimodal distribution) | Particle Size, cumulative distribution Q3 X10 [1] | Particle Size, cumulative distribution Q3 X50 [1] | Particle Size, cumulative distribution Q3 X90 [1] | largest particles or clusters observed (microscope imaging / SEM) [2] | particle size in suspension prior to isolation (microscope imaging) [2] | Particle Size, cumulative distribution Q3 X10 ([3]; 20% RH for 48 hours) | Particle Size, cumulative distribution Q3 X50 ([3]; 20% RH for 48 hours) | Particle Size, cumulative distribution Q3 X90 ([3]; 20% RH for 48 hours) | DSC trace of the stored sample ([3]; 20% RH for 48 hours) | time to steady state in DVS mass plot ([3]; storage at 20% RH) | size of larger clusters or agglomerates by dry Sympatec PSD analysis [1, 4] | size of most particles by dry Sympatec PSD analysis [1, 4] | Compound | variation of particle size after storage (PSD) ([3]; 20% RH for 48 hours) | weight change during storage (DVS mass plot) [3] | stability on prolonged storage ([3]; 20% RH for 48 hours, compared with anhydrous BDP)
1 | up to 150 μm | 1.26 μ | 12.58 μ | 61.27 μ | up to 100 μm | up to 5 μm | – | – | – | – | – | – | – | CCC(=O)OCC(=O)[C@@]1(OC(=O)CC)[C@@H](C)C[C@H]2[C@@H]3CCC4=CC(=O)C=C[C@]4(C)[C@@]3(Cl)[C@@H](O)C[C@@]21C [Comparative Example 1] | – | – | –
2 | – | 0.43 μ | 1.10 μ | 2.24 μ | – | – | 0.42 μ | 1.07 μ | 2.10 μ | formation of BDP hydrate | – | – | – | CCC(=O)OCC(=O)[C@@]1(OC(=O)CC)[C@@H](C)C[C@H]2[C@@H]3CCC4=CC(=O)C=C[C@]4(C)[C@@]3(Cl)[C@@H](O)C[C@@]21C [anhydrous BDP, anhydrous beclomethasone diproprionate] | no significant variation of particle size | considerable weight changes | –
3 | – | 0.51 μ | 1.35 μ | 3.17 μ | – | – | 0.51 μ | 1.37 μ | 2.95 μ | no variation in the thermal behavior | about 1500 minutes | – | – | CCC(=O)OCC(=O)[C@@]1(OC(=O)CC)[C@@H](C)C[C@H]2[C@@H]3CCC4=CC(=O)C=C[C@]4(C)[C@@]3(Cl)[C@@H](O)C[C@@]21C.O [BDP hydrate] | no significant variation of particle size | considerable weight loss due to partial dehydration | higher stability on prolonged storage than anhydrous BDP
4 | – | 0.84 μ | 3.58 μ | 8.76 μ | up to 10 μm | up to 5 μm | – | – | – | – | – | > 20 μm | ~4 μm | CCC(=O)OCC(=O)[C@@]1(OC(=O)CC)[C@@H](C)C[C@H]2[C@@H]3CCC4=CC(=O)C=C[C@]4(C)[C@@]3(Cl)[C@@H](O)C[C@@]21C [Comparative Example 2] | – | – | –
